Data: patent publication US12338484B2, “FRET biosensor for detecting and reporting NAD+/NADH ratio changes” (Sartorius BioAnalytical Instruments, Inc., priority 2022, dated 2025)

Experiments:
Assay type in all cases: biochemical
Set-up in all cases: key: Good response: Constructs with very clear and robust spectra separation; Poor response: those with noticeable but small spectra separation; No response: those having no spectra separation
[1] = molecular target: Thermus aquaticus T-Rex FRET fusion, initial construct #10, Rex(A)-cpmEGFP(145/146)-Rex(B)-mKOk, SEQ ID NO: 170 (Thermus aquaticus, UniProt Q9X2V5, E116G/F189I/K117M/K204T/K47E/R46D/R58D/S30A/Y98W); test: FRET response (emission spectra) of purified initial construct #10 in absence or presence of 40 uM NADH
Thermus aquaticus T-Rex FRET fusion, initial construct #10, Rex(A)-cpmEGFP(145/146)-Rex(B)-mKOk, SEQ ID NO: 170, sequence (Q9X2V5 other isoform, or with tags, fused parts or gaps E116G/F189I/K117M/K204T/K47E/R46D/R58D/S30A/Y98W): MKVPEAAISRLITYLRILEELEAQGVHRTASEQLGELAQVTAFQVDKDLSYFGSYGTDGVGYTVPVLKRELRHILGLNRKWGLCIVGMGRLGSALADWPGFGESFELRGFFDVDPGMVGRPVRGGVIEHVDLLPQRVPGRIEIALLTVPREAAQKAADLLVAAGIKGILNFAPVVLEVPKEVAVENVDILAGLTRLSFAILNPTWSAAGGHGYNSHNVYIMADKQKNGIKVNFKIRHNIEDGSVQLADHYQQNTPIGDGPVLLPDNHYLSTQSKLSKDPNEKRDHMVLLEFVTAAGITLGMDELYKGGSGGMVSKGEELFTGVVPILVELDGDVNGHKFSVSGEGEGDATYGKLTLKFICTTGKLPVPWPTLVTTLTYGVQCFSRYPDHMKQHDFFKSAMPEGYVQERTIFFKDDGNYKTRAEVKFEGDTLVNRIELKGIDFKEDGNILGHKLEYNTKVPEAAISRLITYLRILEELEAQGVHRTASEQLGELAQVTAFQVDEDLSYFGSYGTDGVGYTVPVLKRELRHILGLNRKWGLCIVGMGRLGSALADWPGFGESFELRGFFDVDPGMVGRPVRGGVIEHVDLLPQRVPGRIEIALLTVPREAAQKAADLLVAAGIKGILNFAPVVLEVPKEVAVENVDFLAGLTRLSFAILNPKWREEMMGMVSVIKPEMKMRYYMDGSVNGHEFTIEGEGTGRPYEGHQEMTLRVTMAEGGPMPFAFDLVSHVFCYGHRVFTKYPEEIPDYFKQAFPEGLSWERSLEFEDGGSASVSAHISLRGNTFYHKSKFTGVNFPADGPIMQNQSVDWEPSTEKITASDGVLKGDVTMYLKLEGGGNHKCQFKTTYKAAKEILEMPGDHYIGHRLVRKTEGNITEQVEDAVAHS
Experimental: (§1) 16 initial FRET constructs (See Table 3) were constructed using expression vector pET28c with a T7 promoter and lac operator and expressed in E. coli. Cells were collected and lysed using a commercially-available lysis buffer. Proteins of interest were isolated from the lysates using Ni-NTA magnetic beads. Eluted proteins were subjected to buffer exchange and final protein concentrating. To test performance of the initial FRET constructs, their emission spectra was recorded on a plate reader in absence or presence of 40 uM NADH. Resulting emission spectra with or without the ligand were normalized and overlaid for each construct. Constructs with very clear and robust spectra separation were labeled as having “good response”, those with noticeable but small spectra separation were labeled as having “poor response”, and finally those having no spectra separation were labeled as having “no response”.

[2] = molecular target: T1, Thermus aquaticus T-Rex FRET fusion, initial construct #1, mKOk-Rex(78-189)-cpmEGFP(145/146)-Rex(190-211)-Rex(78-211), SEQ ID NO: 161 (Thermus aquaticus, UniProt Q9X2V5, INS189[…]); test: FRET response (emission spectra) of purified initial construct #1 in absence or presence of 40 uM NADH
T1 construct: His-tag purified from E. coli (pET28c)
T1 sequence (Q9X2V5 other isoform, or with tags, fused parts or gaps with the stated changes): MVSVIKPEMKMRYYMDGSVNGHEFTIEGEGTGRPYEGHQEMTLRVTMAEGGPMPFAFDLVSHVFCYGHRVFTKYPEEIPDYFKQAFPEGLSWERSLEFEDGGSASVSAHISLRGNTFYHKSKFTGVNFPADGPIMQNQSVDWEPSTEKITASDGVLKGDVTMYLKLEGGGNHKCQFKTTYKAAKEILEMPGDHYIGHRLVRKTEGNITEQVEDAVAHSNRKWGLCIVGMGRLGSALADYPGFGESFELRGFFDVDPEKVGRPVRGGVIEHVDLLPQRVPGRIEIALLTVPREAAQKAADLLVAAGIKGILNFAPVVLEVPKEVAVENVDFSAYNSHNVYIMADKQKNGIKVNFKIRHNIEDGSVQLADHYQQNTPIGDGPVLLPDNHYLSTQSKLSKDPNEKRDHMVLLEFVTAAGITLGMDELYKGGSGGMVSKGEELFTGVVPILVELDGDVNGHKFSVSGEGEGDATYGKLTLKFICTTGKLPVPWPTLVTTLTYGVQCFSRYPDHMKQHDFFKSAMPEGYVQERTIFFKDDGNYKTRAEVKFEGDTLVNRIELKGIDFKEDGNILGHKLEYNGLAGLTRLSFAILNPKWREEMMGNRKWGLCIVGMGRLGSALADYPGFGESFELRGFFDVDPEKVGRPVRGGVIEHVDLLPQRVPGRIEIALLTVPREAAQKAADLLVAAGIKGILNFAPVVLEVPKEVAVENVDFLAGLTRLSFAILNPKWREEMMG
Experimental: as §1

[3] = molecular target: T2, Thermus aquaticus T-Rex FRET fusion, initial construct #8, Rex(78-211)-Rex(78-189)-cpmEGFP(173/174)-Rex(190-211)-mKOk, SEQ ID NO: 168 (Thermus aquaticus, UniProt Q9X2V5, INS189[…]); test: FRET response (emission spectra) of purified initial construct #8 in absence or presence of 40 uM NADH
T2 construct: His-tag purified from E. coli
T2 sequence (Q9X2V5 other isoform, or with tags, fused parts or gaps with the stated changes): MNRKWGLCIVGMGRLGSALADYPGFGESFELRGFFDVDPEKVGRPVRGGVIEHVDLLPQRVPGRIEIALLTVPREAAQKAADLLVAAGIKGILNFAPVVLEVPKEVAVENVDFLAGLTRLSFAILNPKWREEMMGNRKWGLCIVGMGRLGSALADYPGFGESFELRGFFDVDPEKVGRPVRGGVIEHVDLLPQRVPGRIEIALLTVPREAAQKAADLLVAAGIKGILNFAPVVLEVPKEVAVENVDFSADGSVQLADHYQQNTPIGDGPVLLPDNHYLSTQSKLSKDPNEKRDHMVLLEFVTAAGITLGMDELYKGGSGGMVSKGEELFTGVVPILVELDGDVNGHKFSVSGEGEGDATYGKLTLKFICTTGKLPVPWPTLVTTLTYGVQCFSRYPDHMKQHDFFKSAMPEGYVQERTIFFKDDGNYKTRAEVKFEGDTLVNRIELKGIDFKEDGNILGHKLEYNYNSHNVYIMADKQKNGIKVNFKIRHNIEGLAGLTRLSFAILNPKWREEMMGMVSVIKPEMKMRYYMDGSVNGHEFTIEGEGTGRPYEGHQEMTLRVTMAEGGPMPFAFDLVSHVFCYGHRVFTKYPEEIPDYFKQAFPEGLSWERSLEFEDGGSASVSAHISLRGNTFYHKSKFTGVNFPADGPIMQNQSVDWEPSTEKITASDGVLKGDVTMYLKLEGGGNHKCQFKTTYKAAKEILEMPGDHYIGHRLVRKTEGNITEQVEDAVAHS
Experimental: as §1

Question: How did the “FRET response to NADH” value [1] turn out when `NC(=O)C1=CN([C@@H]2O[C@H](COP(=O)(O)OP(=O)(O)OC[C@H]3O[C@@H](n4cnc5c(N)ncnc54)[C@H](O)[C@@H]3O)[C@@H](O)[C@H]2O)C=CC1` [NADH] was run?
Answer: Good response

Question: What about the “FRET response to NADH” value [2] of the same compound?
Answer: No response

Question: And the “FRET response to NADH” value [3]?
Answer: No response
